In one assay the test system is HCC1937 cells. Put plainly: HCC1937 viability (MTS). The settings on record: HCC1937 (low to undetectable MUC1-C), 3 d. Type of assay: cell-based, human. As to the method: (§1) FIGS. 16A-D—Effects of apigenin on breast cancer cells without and with endogenous MUC1 expression. (FIG. 16A) Lysates from human MCF-7, HCC1937 and BT474 cells were immunoblotted with the indicated antibodies. (FIG. 16B) BT474 cells were treated with indicated concentrations of apigenin and baicalein for 3 d, washed and then treated for an additional 3 d. Lysates were immunoblotted with the indicated antibodies. (FIG. 16C) BT474 (triangles) and HCC1937 (squares) cells were treated with apigenin for 3 d. Viable cell numbers were determined by MTS assay. The results (mean+SD of 3 determinations) are expressed as percentage of control growth in the presence of DMSO. (FIG. 16D) BT474 cells were plated at a density of 5000 cells/6 cm dish. At 24 h after seeding, DMSO or apigenin at concentrations of 25, 50 and 75 μM was added to the medium. After 2 weeks, colonies were stained with crystal violet. The results (mean+SD of 3 determinations) are expressed as percentage of control colony formation in the presence of DMSO.

For assay [1], the target named is T1, MUC1-C (Homo sapiens, UniProt P15941).
T1 sequence (P15941 1098-1255 limits assumed): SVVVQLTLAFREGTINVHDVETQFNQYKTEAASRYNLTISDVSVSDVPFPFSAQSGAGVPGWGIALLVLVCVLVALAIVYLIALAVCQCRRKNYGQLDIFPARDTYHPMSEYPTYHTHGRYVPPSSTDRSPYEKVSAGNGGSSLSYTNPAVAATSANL
The experiment in a line: Immunoblot of MUC1-C expression in BT474 cells. The assay is classed as cell-based. Further details: endogenous in cells. The settings on record: BT474, 3 d then additional 3 d. The protocol:
as §1

For a further assay, the system named is BT474 cells. Put plainly: BT474 viability (MTS) and colony formation. The assay is classed as cell-based, human. As to the method: as §1
A further assay deals with MCF-7 cells. Put plainly: Cell cycle distribution and necrosis by flow cytometry, MCF-7. The assay is classed as cell-based, human. The settings on record: MCF-7, 5 μM, 3 and 4 d. As to the method: FIGS. 3A-D. MUC1/CQC peptide induces S phase arrest and necrosis. ZR-75-1 (FIGS. 2A-B) and MCF-7 (FIGS. 2C-D) cells were treated with 5 μM MUC1/CQC or MUC1/AQA for 3 and 4 d. Cells were fixed and analyzed for cell cycle distribution by flow cytometry (FIGS. 2A and 2C). The percentage of cells in G1, S and G2/M phases is included in the panels. Cells were also stained with propidium iodide and analyzed by flow cytometry for necrosis (FIGS. 2B and 2D). The percentage of necrotic cells is included in the panels.
Cells were harvested, washed with PBS, fixed with 80% ethanol, and incubated in PBS containing 40 μg/ml RNAse and 40 μg/ml propidium iodide for 30 min at 37° C. Cell cycle distribution was determined by flow cytometry. Sub-G1 DNA content was assessed by staining ethanol-fixed and citrate buffer-permeabilized cells with propidium iodide and monitoring by flow cytometry as described (Yin et al., 2007). For assessment of necrosis, cells were incubated with 1 μg/ml propidium iodide/PBS for 5 min at room temperature and then monitored by flow cytometry as described (Yin et al., 2007).

For the next assay, the system named is ZR-75-1/vector cells. Put plainly: Viable cell number by trypan blue exclusion, ZR-75-1/vector. Type of assay: cell-based, human. As to conditions: 5 μM. As to the method: (§2) FIGS. 4A-E. Selectivity of MUC1/CQC for MUC1 expressing breast cancer cells. (FIG. 4A) ZR-75-1 cells were stably infected with an empty lentivirus (vector) or one expressing a MUC1 siRNA. Lysates for the infected cells were immunoblotted with the indicated antibodies. (FIG. 4B) ZR-75-1/vector cells were left untreated (diamonds), and ZR-75-1/vector (squares) and ZR-75-1/MUC1 siRNA (triangles) cells were treated with 5 μM MUC1/CQC peptide for the indicated times. Viable cell number was determined by trypan blue exclusion. (FIG. 4C) 293 cells were left untreated (diamonds), and treated with 5 μM MUC1/CQC (squares) or MUC1/AQA (triangles) for the indicated times. Viable cell number was determined by trypan blue exclusion. (FIG. 4D) MCF-10A cells were left untreated (left panel), and treated with 5 μM MUC1/CQC (middle panel) or MUC1/AQA (right panel). At 3 d, cells were analyzed for cell cycle distribution. […] Viable cell number was determined by trypan blue exclusion.
Human breast cancer ZR-75-1, ZR-75-1/vector, ZR-75-1/MUC1siRNA (Ren et al., 2004) cell lines were grown in RPMI1640 medium supplemented with 10% heat-inactivated fetal bovine serum (HI-FBS), 100 U/ml penicillin, and 100 μg/ml streptomycin (Invitrogen) in a humidified incubator at 37° C. and 5% CO2. […] Viability was determined by trypan blue exclusion.

Assay [2] concerns the target T1, MUC1-C. The experiment in a line: Immunoblot of nuclear MUC1-C levels in MCF-7 cells (peptide). The assay is classed as cell-based. Further details: Human ZR-75-1 and MCF-7 breast cancer cells overexpress endogenous MUC1; endogenous in cells; host or cells: ZR-75-1; MCF-7. The settings on record: MCF-7, 5 μM peptide, 3 d. As to the method:
FIGS. 2A-C. MUC1/CQC peptide blocks nuclear localization of MUC1-C. (FIG. 2A) ZR-75-1 cells were incubated with 5 μM FITC-labeled MUC1/CQC peptide for the indicated times and then analyzed by flow cytometry. The mean fluorescence index (MFI) is included in each of the panels. (FIGS. 2B-C) ZR-75-1 (FIG. 2B) and MCF-7 (FIG. 2C) cells were incubated in the presence of 5 μM MUC1/CQC or MUC1/AQA peptide for 3 d. Whole cell lysates (WCL) (left panels) and nuclear lysates (right panels) were immunoblotted with the indicated antibodies.
Whole cell and nuclear lysates were prepared as described (Leng et al., 2007). Soluble proteins were subjected to immunoprecipitation with anti-Flag (Sigma, St. Louis, Mo.). Immunoprecipitates and soluble proteins were analyzed by immunoblotting with anti-His (Cell Signaling Technology, Danvers, Mass.), anti-GFP (Millipore, Danvers, Mass.), anti-Flag, anti-MUC1-C (Ab1; NeoMarkers, Fremont, Calif.), anti-lamin B (EMD, La Jolla, Calif.) or anti-β-actin (Sigma). Reactivity was detected with horseradish peroxidase-conjugated second antibodies and chemiluminescence.

Another assay deals with MCF-10A cells. The experiment in a line: Cell cycle distribution and growth of MCF-10A cells (peptide). As to conditions: 5 μM. Type of assay: cell-based, human. As to the method: as §2
Human breast cancer ZR-75-1, ZR-75-1/vector, ZR-75-1/MUC1siRNA (Ren et al., 2004) cell lines were grown in RPMI1640 medium supplemented with 10% heat-inactivated fetal bovine serum (HI-FBS), 100 U/ml penicillin, and 100 μg/ml streptomycin (Invitrogen) in a humidified incubator at 37° C. and 5% CO2. […] Viability was determined by trypan blue exclusion. […]

SMILES strings stand for the structures.

For `O=c1cc(-c2ccc(O)cc2)oc2cc(O)cc(O)c12` [Apigenin, 4′,5,7-trihydroxyflavone], the “viability (MTS)” value in the assay with HCC1937 cells is “not”; with BT474 cells (BT474, 3 d), “loss of viability”. In addition, the MUC1-C expression entry on MUC1-C [1] is on record as “downregulation of MUC1-C expression”. Moreover, the clonogenic survival entry in the assay on BT474 cells (BT474, 25, 50 and 75 μM, 2 weeks) is “concentration dependent decreases in clonogenic survival”.
In the case of `CC[C@H](C)[C@H](NC(=O)[C@H](CC(=O)O)NC(=O)[C@H](CC(C)C)NC(=O)[C@H](CCC(N)=O)NC(=O)CNC(=O)[C@H](Cc1ccc(O)cc1)NC(=O)[C@H](CC(N)=O)NC(=O)[C@H](CCCCN)NC(=O)[C@H](CCCNC(=N)N)NC(=O)[C@H](CCCNC(=N)N)NC(=O)[C@H](CS)NC(=O)[C@H](CCC(N)=O)NC(=O)[C@H](CS)NC(=O)[C@@H](CCCNC(=N)N)NC(=O)[C@@H](CCCNC(=N)N)NC(=O)[C@@H](CCCNC(=N)N)NC(=O)[C@@H](CCCNC(=N)N)NC(=O)[C@@H](CCCNC(=N)N)NC(=O)[C@@H](CCCNC(=N)N)NC(=O)[C@@H](CCCNC(=N)N)NC(=O)[C@@H](CCCNC(=N)N)NC(=O)[C@H](N)CCCNC(=N)N)C(=O)N[C@@H](Cc1ccccc1)C(=O)N1CCC[C@H]1C(=O)O` [MUC1/CQC], the cell cycle distribution result in the assay on MCF-7 cells is reported as “arrest of growth in S phase”; in the assay with MCF-10A cells (3 d), “no effect”. Moreover, the “necrosis (propidium iodide)” value in the assay on MCF-7 cells was “induction of necrosis”. The “growth / viable cell number” value in the assay on ZR-75-1/vector cells was “growth arrest and death”; in the assay with MCF-10A cells, “no effect”. In addition, on MUC1-C [2], the “nuclear MUC1-C levels” value is “down-regulation of nuclear MUC1-C levels”.
